Measurements reported in ChEMBL document CHEMBL4118122, “Identification and biological evaluation of thiazole-based inverse agonists of RORγt” (Bioorg Med Chem Lett, 2018).

How the values were obtained:
[1] = biological target: Neuromedin-K receptor (Homo sapiens) (UniProt P29371); experiment: Displacement of [3H]SR 142801 from human recombinant NK3 receptor at 10 uM after 120 mins by scintillation counting analysis relative to control
D(2) dopamine receptor = D(2) dopamine receptor (Homo sapiens, UniProt P14416); experiment: Displacement of [3H]7-OH-DPAT from human recombinant dopamine D2S receptor at 10 uM after 60 mins by scintillation counting analysis relative to control
Chain of D(2) dopamine receptor (P14416 whole entry): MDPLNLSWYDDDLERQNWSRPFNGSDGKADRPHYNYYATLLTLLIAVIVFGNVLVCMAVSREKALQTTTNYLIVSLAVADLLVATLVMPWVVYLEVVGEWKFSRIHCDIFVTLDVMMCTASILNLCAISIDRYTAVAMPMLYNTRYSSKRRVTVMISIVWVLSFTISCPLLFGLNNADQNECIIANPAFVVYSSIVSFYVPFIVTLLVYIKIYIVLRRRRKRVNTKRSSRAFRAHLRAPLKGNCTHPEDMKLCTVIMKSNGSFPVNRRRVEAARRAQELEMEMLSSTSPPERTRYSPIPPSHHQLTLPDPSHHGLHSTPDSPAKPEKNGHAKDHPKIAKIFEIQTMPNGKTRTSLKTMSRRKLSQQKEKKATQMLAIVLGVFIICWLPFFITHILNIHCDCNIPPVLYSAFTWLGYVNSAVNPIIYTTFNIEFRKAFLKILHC

[2] = biological target: Serine/threonine-protein kinase PLK1 (Homo sapiens) (UniProt P53350); experiment: Inhibition of full length recombinant His-tagged human PLK1 expressed in baculovirus expression system at 10 uM in presence of ATP relative to control
Chain of Serine/threonine-protein kinase PLK1 (Homo sapiens) (P53350 whole entry): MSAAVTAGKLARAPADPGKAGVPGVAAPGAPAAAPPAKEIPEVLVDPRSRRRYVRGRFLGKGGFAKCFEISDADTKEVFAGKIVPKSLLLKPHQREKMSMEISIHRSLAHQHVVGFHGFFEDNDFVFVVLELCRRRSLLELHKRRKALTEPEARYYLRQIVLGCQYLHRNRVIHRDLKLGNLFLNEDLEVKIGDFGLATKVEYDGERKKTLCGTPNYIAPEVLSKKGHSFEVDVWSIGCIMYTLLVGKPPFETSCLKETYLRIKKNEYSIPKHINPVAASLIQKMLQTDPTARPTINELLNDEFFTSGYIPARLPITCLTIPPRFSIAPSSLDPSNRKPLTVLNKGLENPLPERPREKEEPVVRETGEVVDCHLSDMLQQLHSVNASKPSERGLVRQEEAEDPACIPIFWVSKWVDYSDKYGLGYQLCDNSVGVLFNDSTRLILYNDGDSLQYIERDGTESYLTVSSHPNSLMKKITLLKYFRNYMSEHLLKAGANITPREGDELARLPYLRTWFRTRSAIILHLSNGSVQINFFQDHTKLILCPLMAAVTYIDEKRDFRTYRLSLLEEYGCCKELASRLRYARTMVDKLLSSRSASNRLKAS

[3] = biological target: Serine/threonine-protein kinase Chk1 (Homo sapiens) (UniProt O14757); experiment: Inhibition of recombinant full length His-tagged human CHK1 expressed in baculovirus expression system at 10 uM in presence of ATP relative to control
Rattus norvegicus [4] = species: Rattus norvegicus; experiment: Binding affinity to rat GABA receptor at 10 uM after 60 mins by radioligand binding assay relative to control
[5] = biological target: Adenosine receptor A1 (Homo sapiens) (UniProt P30542); experiment: Displacement of [3H]-DPCPX from human recombinant adenosine A1 receptor at 10 uM after 60 mins by scintillation counting analysis relative to control
[6] = biological target: Small conductance calcium-activated potassium channel (Rattus norvegicus) (UniProt P70604+P70606+P70605); experiment: Displacement of [125I]apamin from rat brain SkCa channel at 10 uM after 60 mins by scintillation counting analysis relative to control
[7] = biological target: Vasoactive intestinal polypeptide receptor 1 (Homo sapiens, UniProt P32241); experiment: Displacement of [125I]VIP from human recombinant VPAC1 receptor after 60 mins by scintillation counting analysis
Chain of Vasoactive intestinal polypeptide receptor 1 (P32241 whole entry): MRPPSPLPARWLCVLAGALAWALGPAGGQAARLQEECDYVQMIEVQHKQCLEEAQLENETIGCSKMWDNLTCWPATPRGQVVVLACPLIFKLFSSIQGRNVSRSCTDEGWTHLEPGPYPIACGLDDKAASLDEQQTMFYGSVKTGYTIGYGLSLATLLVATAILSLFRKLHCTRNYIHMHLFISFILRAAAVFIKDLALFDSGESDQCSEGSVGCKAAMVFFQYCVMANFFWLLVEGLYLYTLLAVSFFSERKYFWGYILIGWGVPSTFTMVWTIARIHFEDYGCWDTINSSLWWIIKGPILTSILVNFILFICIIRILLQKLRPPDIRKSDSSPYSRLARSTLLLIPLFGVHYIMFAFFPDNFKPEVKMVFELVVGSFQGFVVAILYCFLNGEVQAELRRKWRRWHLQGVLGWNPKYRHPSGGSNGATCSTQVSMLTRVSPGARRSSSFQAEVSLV

[8] = biological target: Kappa-type opioid receptor (Homo sapiens, UniProt P41145); experiment: Displacement of [3H]U69593 from human kappa receptor at 10 uM after 60 mins by scintillation counting analysis relative to control
Chain of Kappa-type opioid receptor (P41145 whole entry): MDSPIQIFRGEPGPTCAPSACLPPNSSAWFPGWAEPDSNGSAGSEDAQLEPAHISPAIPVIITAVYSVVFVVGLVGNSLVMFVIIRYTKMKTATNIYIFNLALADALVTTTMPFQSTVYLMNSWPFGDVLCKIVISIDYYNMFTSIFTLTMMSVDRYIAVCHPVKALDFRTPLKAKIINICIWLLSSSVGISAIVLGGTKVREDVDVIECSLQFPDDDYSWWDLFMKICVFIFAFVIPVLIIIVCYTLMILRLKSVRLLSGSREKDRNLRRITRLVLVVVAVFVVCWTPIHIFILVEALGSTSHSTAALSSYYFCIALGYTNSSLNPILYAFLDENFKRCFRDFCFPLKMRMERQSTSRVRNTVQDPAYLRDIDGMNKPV

[9] = biological target: 5-hydroxytryptamine receptor 7 (Homo sapiens, UniProt P34969); experiment: Displacement of [3H]LSD from human recombinant 5-HT7 receptor after 120 mins by scintillation counting analysis
[10] = biological target: C-X-C chemokine receptor type 2 (Homo sapiens) (UniProt P25025); experiment: Displacement of [125I]IL-8 from human recombinant CXCR2 receptor at 1 uM after 60 mins by scintillation counting analysis relative to control
Chain of C-X-C chemokine receptor type 2 (Homo sapiens) (P25025 whole entry): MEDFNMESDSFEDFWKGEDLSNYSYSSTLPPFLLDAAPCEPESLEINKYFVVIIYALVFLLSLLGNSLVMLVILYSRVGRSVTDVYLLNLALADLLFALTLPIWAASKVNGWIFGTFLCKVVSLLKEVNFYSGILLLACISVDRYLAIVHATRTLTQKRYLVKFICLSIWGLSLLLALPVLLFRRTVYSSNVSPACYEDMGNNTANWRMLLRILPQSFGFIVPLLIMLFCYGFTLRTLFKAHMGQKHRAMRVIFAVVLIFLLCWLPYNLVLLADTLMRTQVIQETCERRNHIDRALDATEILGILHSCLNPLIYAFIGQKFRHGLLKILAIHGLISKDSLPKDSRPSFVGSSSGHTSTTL

Cytochrome P450 2D6 = Cytochrome P450 2D6 (Homo sapiens, UniProt P10635); experiment: Inhibition of CYP2D6 (unknown origin); format: ADME
Adenosine receptor A2a = Adenosine receptor A2a (Homo sapiens, UniProt P29274); experiment: Displacement of [3H]-CGS 21680 from human recombinant adenosine A2A receptor at 1 uM after 120 mins by scintillation counting analysis relative to control
Chain of Adenosine receptor A2a (P29274 whole entry): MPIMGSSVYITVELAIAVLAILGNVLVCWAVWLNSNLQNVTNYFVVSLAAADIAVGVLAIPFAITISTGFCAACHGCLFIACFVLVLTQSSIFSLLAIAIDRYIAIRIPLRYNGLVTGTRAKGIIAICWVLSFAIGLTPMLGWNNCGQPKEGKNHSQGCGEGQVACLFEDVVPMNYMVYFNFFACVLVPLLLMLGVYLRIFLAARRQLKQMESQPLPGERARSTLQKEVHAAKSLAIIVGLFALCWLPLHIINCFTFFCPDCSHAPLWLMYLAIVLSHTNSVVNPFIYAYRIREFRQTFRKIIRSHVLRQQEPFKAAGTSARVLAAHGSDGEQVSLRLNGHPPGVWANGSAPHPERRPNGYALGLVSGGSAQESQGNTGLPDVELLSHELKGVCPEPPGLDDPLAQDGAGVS

[11] = biological target: Adenosine receptor A3 (Homo sapiens) (UniProt P0DMS8); experiment: Displacement of [125I]AB-MECA from human recombinant adenosine A3 receptor at 1 uM after 120 mins by scintillation counting analysis relative to control
Chain of Adenosine receptor A3 (Homo sapiens) (P0DMS8 whole entry): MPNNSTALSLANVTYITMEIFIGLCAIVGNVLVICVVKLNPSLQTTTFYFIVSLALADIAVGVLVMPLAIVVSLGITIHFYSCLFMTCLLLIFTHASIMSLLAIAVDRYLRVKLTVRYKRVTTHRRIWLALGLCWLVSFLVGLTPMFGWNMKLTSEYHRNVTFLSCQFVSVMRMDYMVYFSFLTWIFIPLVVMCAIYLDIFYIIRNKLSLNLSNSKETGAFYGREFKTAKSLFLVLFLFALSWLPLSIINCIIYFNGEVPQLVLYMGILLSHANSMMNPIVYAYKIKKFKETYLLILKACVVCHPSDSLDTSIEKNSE

[12] = biological target: Sodium-dependent noradrenaline transporter (Homo sapiens, UniProt P23975); experiment: Displacement of [3H]nisoxetine from recombinant human norepinephrine transporter at 10 uM after 120 mins by scintillation counting analysis relative to control
[13] = biological target: T1, Nuclear receptor ROR-gamma (Homo sapiens, UniProt P51449); experiment: Inverse agonist activity at RORgammat in human CD4 positive T cells assessed as inhibition of IL17A production in human Th17 cells after 1 hr; format: cell-based
T1 sequence (P51449 whole entry): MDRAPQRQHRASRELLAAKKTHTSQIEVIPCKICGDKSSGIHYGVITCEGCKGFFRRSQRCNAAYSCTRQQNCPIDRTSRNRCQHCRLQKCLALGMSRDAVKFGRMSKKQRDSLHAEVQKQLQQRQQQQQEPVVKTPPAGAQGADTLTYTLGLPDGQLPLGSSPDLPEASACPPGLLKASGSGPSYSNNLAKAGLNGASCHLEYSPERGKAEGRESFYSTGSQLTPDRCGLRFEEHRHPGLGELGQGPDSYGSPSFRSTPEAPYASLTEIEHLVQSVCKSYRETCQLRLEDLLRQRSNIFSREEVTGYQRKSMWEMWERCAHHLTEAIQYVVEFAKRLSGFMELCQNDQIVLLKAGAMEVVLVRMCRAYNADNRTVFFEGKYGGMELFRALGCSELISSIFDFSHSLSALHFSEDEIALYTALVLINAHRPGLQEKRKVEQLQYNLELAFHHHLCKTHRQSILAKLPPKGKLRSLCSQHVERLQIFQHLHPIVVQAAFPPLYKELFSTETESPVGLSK

[14] = biological target: C-X-C chemokine receptor type 2 (Homo sapiens, UniProt P25025); experiment: Displacement of [125I]IL-8 from human recombinant CXCR2 receptor after 60 mins by scintillation counting analysis
Chain of C-X-C chemokine receptor type 2 (P25025 whole entry): as the sequence (P25025 whole entry) above

[15] = biological target: 5-hydroxytryptamine receptor 1A (Homo sapiens) (UniProt P08908); experiment: Displacement of [3H]8-OH-DPAT from recombinant human 5-HT1A receptor at 10 uM after 60 mins by scintillation counting analysis relative to control
[16] = Displacement of [3H]D 888 from rat brain L-type calcium channel verapamil binding site after 120 mins by scintillation counting analysis
Rattus norvegicus [17] = species: Rattus norvegicus; experiment: Displacement of [3H]batrachotoxinin from rat brain voltage gated sodium ion channel site 2 at 10 uM after 60 mins by scintillation counting analysis relative to control
Cytochrome P450 2C19 = Cytochrome P450 2C19 (Homo sapiens, UniProt P33261); experiment: Inhibition of CYP2C19 (unknown origin); format: ADME
Chain of Cytochrome P450 2C19 (P33261 whole entry): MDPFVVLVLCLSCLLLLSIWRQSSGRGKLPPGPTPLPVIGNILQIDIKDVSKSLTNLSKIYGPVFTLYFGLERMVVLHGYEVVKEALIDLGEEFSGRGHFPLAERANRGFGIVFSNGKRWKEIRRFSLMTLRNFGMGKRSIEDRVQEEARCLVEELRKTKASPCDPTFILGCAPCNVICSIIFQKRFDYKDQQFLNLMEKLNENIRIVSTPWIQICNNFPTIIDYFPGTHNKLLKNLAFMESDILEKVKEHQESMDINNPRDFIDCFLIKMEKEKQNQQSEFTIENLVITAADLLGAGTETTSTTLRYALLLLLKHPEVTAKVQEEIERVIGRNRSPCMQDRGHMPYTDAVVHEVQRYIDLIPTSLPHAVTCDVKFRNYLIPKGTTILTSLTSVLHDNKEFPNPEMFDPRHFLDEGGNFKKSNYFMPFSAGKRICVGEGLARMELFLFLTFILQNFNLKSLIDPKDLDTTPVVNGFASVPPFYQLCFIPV

[18] = biological target: Mitogen-activated protein kinase 12 (Homo sapiens) (UniProt P53778); experiment: Inhibition of recombinant full length His-tagged human p38gamma expressed in baculovirus expression system at 10 uM in presence of ATP relative to control
Chain of Mitogen-activated protein kinase 12 (Homo sapiens) (P53778 whole entry): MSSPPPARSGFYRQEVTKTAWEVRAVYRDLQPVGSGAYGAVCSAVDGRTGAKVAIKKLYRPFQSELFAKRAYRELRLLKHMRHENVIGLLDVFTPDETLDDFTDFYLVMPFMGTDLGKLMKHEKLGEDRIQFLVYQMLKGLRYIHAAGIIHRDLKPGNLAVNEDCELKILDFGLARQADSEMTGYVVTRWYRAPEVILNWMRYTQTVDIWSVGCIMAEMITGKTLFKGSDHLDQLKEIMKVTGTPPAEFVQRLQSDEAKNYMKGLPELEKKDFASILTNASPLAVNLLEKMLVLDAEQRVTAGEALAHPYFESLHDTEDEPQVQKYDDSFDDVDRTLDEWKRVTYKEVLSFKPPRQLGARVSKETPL

[19] = biological target: Sodium-dependent serotonin transporter (Homo sapiens, UniProt P31645); experiment: Displacement of [3H]-imipramine from recombinant human 5-HT transporter at 10 uM after 60 mins by scintillation counting relative to control
Chain of Sodium-dependent serotonin transporter (P31645 whole entry, looked up): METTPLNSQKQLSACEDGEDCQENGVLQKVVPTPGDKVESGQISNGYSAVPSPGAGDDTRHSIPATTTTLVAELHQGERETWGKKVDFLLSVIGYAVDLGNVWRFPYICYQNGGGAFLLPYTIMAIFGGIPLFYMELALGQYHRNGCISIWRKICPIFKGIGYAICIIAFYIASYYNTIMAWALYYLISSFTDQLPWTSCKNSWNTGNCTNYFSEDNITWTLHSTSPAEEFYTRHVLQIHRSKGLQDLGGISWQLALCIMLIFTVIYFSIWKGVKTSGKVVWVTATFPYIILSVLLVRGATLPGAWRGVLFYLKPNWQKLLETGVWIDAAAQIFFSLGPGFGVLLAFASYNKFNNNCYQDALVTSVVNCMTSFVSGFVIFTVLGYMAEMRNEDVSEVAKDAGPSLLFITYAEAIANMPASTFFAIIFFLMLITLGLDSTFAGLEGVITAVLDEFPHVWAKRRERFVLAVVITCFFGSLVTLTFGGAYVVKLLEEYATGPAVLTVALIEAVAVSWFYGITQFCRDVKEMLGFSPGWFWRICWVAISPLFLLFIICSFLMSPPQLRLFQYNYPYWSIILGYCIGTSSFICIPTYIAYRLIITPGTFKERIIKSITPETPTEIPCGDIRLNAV

Melanocortin receptor 4 = Melanocortin receptor 4 (Homo sapiens, UniProt P32245); experiment: Displacement of [125I]NDP-alpha-MSH from human recombinant MC4 receptor at 1 uM after 120 mins by scintillation counting analysis relative to control
[20] = biological target: Calcium/calmodulin-dependent protein kinase type 1D (Homo sapiens) (UniProt Q8IU85); experiment: Inhibition of CaMK1delta (unknown origin) at 10 uM in presence of ATP relative to control
[21] = Binding affinity to rat GABA receptor after 60 mins by agonist radioligand binding assay
[22] = biological target: cAMP-dependent protein kinase catalytic subunit alpha (Homo sapiens) (UniProt P17612); experiment: Inhibition of recombinant human His-tagged PRKACA expressed in Escherichia coli at 10 uM in presence of ATP relative to control
Homo sapiens = species: Homo sapiens; experiment: Binding affinity to GABA-gated chloride channel (unknown origin) at 10 uM by antagonist radioligand binding assay relative to control

Chain of Neuromedin-K receptor (Homo sapiens) (P29371 whole entry): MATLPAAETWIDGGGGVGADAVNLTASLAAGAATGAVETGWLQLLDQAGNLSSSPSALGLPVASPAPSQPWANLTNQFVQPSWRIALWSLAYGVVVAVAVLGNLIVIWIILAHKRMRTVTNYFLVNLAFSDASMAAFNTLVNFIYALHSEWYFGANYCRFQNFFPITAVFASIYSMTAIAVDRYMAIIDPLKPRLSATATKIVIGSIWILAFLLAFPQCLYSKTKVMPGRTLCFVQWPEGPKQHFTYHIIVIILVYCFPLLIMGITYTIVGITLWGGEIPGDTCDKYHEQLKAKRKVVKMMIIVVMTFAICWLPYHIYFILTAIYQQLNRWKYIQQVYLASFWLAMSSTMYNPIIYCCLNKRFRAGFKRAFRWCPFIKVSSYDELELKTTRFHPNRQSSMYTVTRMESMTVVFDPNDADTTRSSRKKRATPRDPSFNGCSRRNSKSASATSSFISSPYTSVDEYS

CC(C)(C)NS(=O)(=O)c1ccc(-c2sc(C(=O)N[C@H]3C[C@H](C(=O)O)C3)nc2CC2CCCCC2)c2ccccc12
inhibition [1]: 32% | inhibition (D(2) dopamine receptor): 19% | inhibition [2]: -6% | inhibition [3]: 1% | inhibition (Rattus norvegicus [4]): 14% | inhibition [5]: < 10% | inhibition [6]: < 10% | IC50 [7]: 0.47 nM | inhibition [8]: < 10% | IC50 [9]: 0.39 nM | inhibition [10]: < 10% | INH (Cytochrome P450 2D6): > 10 µM | inhibition (Adenosine receptor A2a): 21% | inhibition [11]: 24% | inhibition [12]: 27% | EC50 [13]: 2.8 nM | IC50 [14]: 0.24 nM | inhibition [15]: 16% | IC50 [16]: 51 nM | inhibition (Rattus norvegicus [17]): 11% | INH (Cytochrome P450 2C19): > 10 µM | inhibition [18]: -2% | inhibition [19]: < 10% | inhibition (Melanocortin receptor 4): < 10% | inhibition [20]: 11% | IC50 [21]: 114 nM | inhibition [22]: -4% | inhibition (Homo sapiens): 86%
